According to patent US20100035755A1, “METHOD OF CONTROLLING WEEDS IN A TURF GRASS BY USING SULFONYLUREA COMPOUNDS” (Moghu Research Center Ltd., priority 2008, published 2010):

Experiments:
Perennial rye grass = assay: Turf grass selectivity, greenhouse pot test; type: in vivo
Excerpt: (§1) Turf mats of Zoysia grass, bentgrass, Kentucky bluegrass, or perennial rye grass known as cool season turfgrass or western grass were purchased and cut into a piece having 10 cm×20 cm size. Then, each piece was transplanted in a rectangular plastic pot (surface area of 300 cm^2) in which sandy loam and mixed top soil (Boo-Nong Top Soil No. 3, for horticultural use) are filled in 1:1 ratio. After the transplantation, the grasses were cut once a week to maintain the blade height at 0.5-1.0 cm and cultivated for one month in a green house of which temperature was kept at 25˜30° C. for daytime and 15˜25° C. for nighttime, respectively. Then, the ‘test chemical’ of the above Examples 1 and 2 or ‘control chemical’ was applied thereto in an amount of 400, 200, 100, 50, 25, 12, 6, 3 g ai/ha. As a “control chemical”, pyrazolsulfuron ethyl wettable agent (manufactured by Dongbu Fine Chemicals; herein after, referred to as ‘control chemical No. 1’) and flazasulfuron (manufactured by Dongbu HiTek; herein after, referred to as ‘control chemical No. 2’), both sulfonylurea herbicides for a turf grass, were used. Application was carried out by using a track sprayer (R&D Sprayer, USA) equipped with Teejet 8002 nozzle (Spraying Systems Co., USA), and the application amount was adjusted to 2,000 L/ha, which is a typical application amount for a golf course in Korea. Application solution was prepared by diluting the “test chemical” or the “control chemical” with tap water. […] The test was repeated three times in a random arrangement and the results are given in average value of each test (see Table 2 below).

Zoysia japonica = assay: Turf grass selectivity, greenhouse pot test; type: in vivo; details: Zoysia japonica
Excerpt: as §1

Bentgrass = assay: Turf grass selectivity, greenhouse pot test; type: in vivo, Agrostris palustris
Excerpt: as §1

Kentucky bluegrass = assay: Turf grass selectivity, greenhouse pot test; type: in vivo, Poa pratensis
Excerpt: as §1

Cyperus amuricus = assay: Weed spectrum, greenhouse pot test; type: in vivo; details: two weeks after application
Excerpt: (§2) To a rectangular plastic pot (surface area of 300 cm^2) in which sandy loam and mixed top soil (Boo-Nong Top Soil No. 3, for horticultural use) are filled in 1:1 ratio, eight different kinds of weed seeds including Poa annua and Digitaria sanguinalis as poaceae weed, Cyperus amuricus as cyperaceae weeds and Trifolium repens, Kummerowia striata, fleabane, Veronica officinalis and Portulaca oleracea as broadleaf weeds were sewn (50 to 100 seeds per each weed). These weeds are representative examples of the weeds which typically thrive in a turf grass field.
(§3) The pot was kept in a greenhouse which was maintained at 25˜30° C. for daytime and 15˜25° C. for nighttime, respectively, and irrigation was carried out regularly. Fourteen days after seeding, when the turf grass and the weeds reached approximately at three-leaf stage, the weed seeds were again sewn in separate two pots or “Test chemical” and “Control chemical” were applied in the same manner as the method described above. In this regard, when plants were cultivated for two weeks and then the chemical application was carried out, it is designated as “post-emergence” treatment. On the other than, when the seeding was carried right before the chemical application, it is designated as “pre-emergence” treatment. Preparation of a chemical solution, application method, etc. are the same as above described for evaluation of turf grass selectivity. Two weeks after the chemical application, efficacy of the chemicals for each type of the weeds was evaluated (visual evaluation) based on 0 to 100 scale (i.e., 0 indicates no efficacy and 100 indicates complete weed control).

Trifolium repens = assay: Weed spectrum, greenhouse pot test; type: in vivo; details: two weeks after application
Excerpt: as §2, §3

Dandelion = assay: Weed spectrum, greenhouse pot test; type: in vivo; details: two weeks after application

CCOC(=O)c1cnn(C)c1S(=O)(=O)NC(=O)Nc1nc(OC)cc(OC)n1 [Control chemical No. 1, Pyrazosulfuron ethyl, reference compound]
phytotoxicity (visual assessment 0-10) (Perennial rye grass; 3 g ai/ha, 2 weeks): 0 | phytotoxicity (visual assessment 0-10) (Perennial rye grass; 3 g ai/ha, 4 weeks): 0 | phytotoxicity (visual assessment 0-10) (Perennial rye grass; 6 g ai/ha, 2 weeks): 0 | phytotoxicity (visual assessment 0-10) (Perennial rye grass; 6 g ai/ha, 4 weeks): 0 | phytotoxicity (visual assessment 0-10) (Perennial rye grass; 12 g ai/ha, 2 weeks): 0 | phytotoxicity (visual assessment 0-10) (Perennial rye grass; 12 g ai/ha, 4 weeks): 0 | phytotoxicity (visual assessment 0-10) (Perennial rye grass; 25 g ai/ha, 2 weeks): 0 | phytotoxicity (visual assessment 0-10) (Perennial rye grass; 25 g ai/ha, 4 weeks): 0 | phytotoxicity (visual assessment 0-10) (Perennial rye grass; 50 g ai/ha, 2 weeks): 0 | phytotoxicity (visual assessment 0-10) (Perennial rye grass; 50 g ai/ha, 4 weeks): 0 | phytotoxicity (visual assessment 0-10) (Perennial rye grass; 100 g ai/ha, 2 weeks): 0 | phytotoxicity (visual assessment 0-10) (Perennial rye grass; 100 g ai/ha, 4 weeks): 0 | phytotoxicity (visual assessment 0-10) (Perennial rye grass; 200 g ai/ha, 2 weeks): 0 | phytotoxicity (visual assessment 0-10) (Perennial rye grass; 200 g ai/ha, 4 weeks): 0 | phytotoxicity (visual assessment 0-10) (Perennial rye grass; 400 g ai/ha, 2 weeks): 1 | phytotoxicity (visual assessment 0-10) (Perennial rye grass; 400 g ai/ha, 4 weeks): 0 | phytotoxicity (visual assessment 0-10) (Zoysia japonica; 3 g ai/ha, 2 weeks): 0 | phytotoxicity (visual assessment 0-10) (Zoysia japonica; 3 g ai/ha, 4 weeks): 0 | phytotoxicity (visual assessment 0-10) (Zoysia japonica; 6 g ai/ha, 2 weeks): 0 | phytotoxicity (visual assessment 0-10) (Zoysia japonica; 6 g ai/ha, 4 weeks): 0 | phytotoxicity (visual assessment 0-10) (Zoysia japonica; 12 g ai/ha, 2 weeks): 0 | phytotoxicity (visual assessment 0-10) (Zoysia japonica; 12 g ai/ha, 4 weeks): 0 | phytotoxicity (visual assessment 0-10) (Zoysia japonica; 25 g ai/ha, 2 weeks): 0 | phytotoxicity (visual assessment 0-10) (Zoysia japonica; 25 g ai/ha, 4 weeks): 0 | phytotoxicity (visual assessment 0-10) (Zoysia japonica; 50 g ai/ha, 2 weeks): 0 | phytotoxicity (visual assessment 0-10) (Zoysia japonica; 50 g ai/ha, 4 weeks): 0 | phytotoxicity (visual assessment 0-10) (Zoysia japonica; 100 g ai/ha, 2 weeks): 0 | phytotoxicity (visual assessment 0-10) (Zoysia japonica; 100 g ai/ha, 4 weeks): 0 | phytotoxicity (visual assessment 0-10) (Zoysia japonica; 200 g ai/ha, 2 weeks): 0 | phytotoxicity (visual assessment 0-10) (Zoysia japonica; 200 g ai/ha, 4 weeks): 0 | phytotoxicity (visual assessment 0-10) (Zoysia japonica; 400 g ai/ha, 2 weeks): 0 | phytotoxicity (visual assessment 0-10) (Zoysia japonica; 400 g ai/ha, 4 weeks): 0 | phytotoxicity (visual assessment 0-10) (Bentgrass; 3 g ai/ha, 2 weeks): 0 | phytotoxicity (visual assessment 0-10) (Bentgrass; 3 g ai/ha, 4 weeks): 0 | phytotoxicity (visual assessment 0-10) (Bentgrass; 6 g ai/ha, 2 weeks): 0 | phytotoxicity (visual assessment 0-10) (Bentgrass; 6 g ai/ha, 4 weeks): 0 | phytotoxicity (visual assessment 0-10) (Bentgrass; 12 g ai/ha, 2 weeks): 0 | phytotoxicity (visual assessment 0-10) (Bentgrass; 12 g ai/ha, 4 weeks): 0 | phytotoxicity (visual assessment 0-10) (Bentgrass; 25 g ai/ha, 2 weeks): 0 | phytotoxicity (visual assessment 0-10) (Bentgrass; 25 g ai/ha, 4 weeks): 0 | phytotoxicity (visual assessment 0-10) (Bentgrass; 50 g ai/ha, 2 weeks): 0 | phytotoxicity (visual assessment 0-10) (Bentgrass; 50 g ai/ha, 4 weeks): 0 | phytotoxicity (visual assessment 0-10) (Bentgrass; 100 g ai/ha, 2 weeks): 1 | phytotoxicity (visual assessment 0-10) (Bentgrass; 100 g ai/ha, 4 weeks): 0 | phytotoxicity (visual assessment 0-10) (Bentgrass; 200 g ai/ha, 2 weeks): 2 | phytotoxicity (visual assessment 0-10) (Bentgrass; 200 g ai/ha, 4 weeks): 0 | phytotoxicity (visual assessment 0-10) (Bentgrass; 400 g ai/ha, 2 weeks): 3 | phytotoxicity (visual assessment 0-10) (Bentgrass; 400 g ai/ha, 4 weeks): 1 | phytotoxicity (visual assessment 0-10) (Kentucky bluegrass; 3 g ai/ha, 2 weeks): 0 | phytotoxicity (visual assessment 0-10) (Kentucky bluegrass; 3 g ai/ha, 4 weeks): 0 | phytotoxicity (visual assessment 0-10) (Kentucky bluegrass; 6 g ai/ha, 2 weeks): 0 | phytotoxicity (visual assessment 0-10) (Kentucky bluegrass; 6 g ai/ha, 4 weeks): 0 | phytotoxicity (visual assessment 0-10) (Kentucky bluegrass; 12 g ai/ha, 2 weeks): 0 | phytotoxicity (visual assessment 0-10) (Kentucky bluegrass; 12 g ai/ha, 4 weeks): 0 | phytotoxicity (visual assessment 0-10) (Kentucky bluegrass; 25 g ai/ha, 2 weeks): 0 | phytotoxicity (visual assessment 0-10) (Kentucky bluegrass; 25 g ai/ha, 4 weeks): 0 | phytotoxicity (visual assessment 0-10) (Kentucky bluegrass; 50 g ai/ha, 2 weeks): 0 | phytotoxicity (visual assessment 0-10) (Kentucky bluegrass; 50 g ai/ha, 4 weeks): 0 | phytotoxicity (visual assessment 0-10) (Kentucky bluegrass; 100 g ai/ha, 2 weeks): 0 | phytotoxicity (visual assessment 0-10) (Kentucky bluegrass; 100 g ai/ha, 4 weeks): 0 | phytotoxicity (visual assessment 0-10) (Kentucky bluegrass; 200 g ai/ha, 2 weeks): 1 | phytotoxicity (visual assessment 0-10) (Kentucky bluegrass; 200 g ai/ha, 4 weeks): 0 | phytotoxicity (visual assessment 0-10) (Kentucky bluegrass; 400 g ai/ha, 2 weeks): 2 | phytotoxicity (visual assessment 0-10) (Kentucky bluegrass; 400 g ai/ha, 4 weeks): 1 | efficacy (0-100 scale) (Cyperus amuricus; Post-emergence, 12 g ai/ha): 50 | efficacy (0-100 scale) (Cyperus amuricus; Post-emergence, 25 g ai/ha): 70 | efficacy (0-100 scale) (Cyperus amuricus; Post-emergence, 50 g ai/ha): 80 | efficacy (0-100 scale) (Cyperus amuricus; Post-emergence, 100 g ai/ha): 100 | efficacy (0-100 scale) (Cyperus amuricus; Pre-emergence, 12 g ai/ha): 70 | efficacy (0-100 scale) (Cyperus amuricus; Pre-emergence, 25 g ai/ha): 80 | efficacy (0-100 scale) (Cyperus amuricus; Pre-emergence, 50 g ai/ha): 100 | efficacy (0-100 scale) (Cyperus amuricus; Pre-emergence, 100 g ai/ha): 100 | efficacy (0-100 scale) (Trifolium repens; Post-emergence, 12 g ai/ha): 20 | efficacy (0-100 scale) (Trifolium repens; Post-emergence, 25 g ai/ha): 60 | efficacy (0-100 scale) (Trifolium repens; Post-emergence, 50 g ai/ha): 70 | efficacy (0-100 scale) (Trifolium repens; Post-emergence, 100 g ai/ha): 80 | efficacy (0-100 scale) (Trifolium repens; Pre-emergence, 12 g ai/ha): 40 | efficacy (0-100 scale) (Trifolium repens; Pre-emergence, 25 g ai/ha): 60 | efficacy (0-100 scale) (Trifolium repens; Pre-emergence, 50 g ai/ha): 70 | efficacy (0-100 scale) (Trifolium repens; Pre-emergence, 100 g ai/ha): 70 | efficacy (0-100 scale) (Dandelion; Post-emergence, 12 g ai/ha): 80 | efficacy (0-100 scale) (Dandelion; Post-emergence, 25 g ai/ha): 90 | efficacy (0-100 scale) (Dandelion; Post-emergence, 50 g ai/ha): 100 | efficacy (0-100 scale) (Dandelion; Post-emergence, 100 g ai/ha): 100 | efficacy (0-100 scale) (Dandelion; Pre-emergence, 12 g ai/ha): 70 | efficacy (0-100 scale) (Dandelion; Pre-emergence, 25 g ai/ha): 80 | efficacy (0-100 scale) (Dandelion; Pre-emergence, 50 g ai/ha): 90 | efficacy (0-100 scale) (Dandelion; Pre-emergence, 100 g ai/ha): 100
